Reference: patent US20240390434A1, “PROBIOTIC ENHANCERS AND USES THEREOF” (Blis Technologies Limited, priority 2021, published 2024)

Tests used:
Format in all cases: cell-based
S. aureus A222 = assay: Deferred antagonism assay, producer S. salivarius M18; settings: for Zone of inhibition S. aureus A222: M18
Protocol: (§1) 1-2 producer strain colonies were transferred from a stock plate into 900 μL of suspension solution using a fresh cotton swab. Following this, suspensions were vortexed, and a sample was inoculated onto solid culture media using a fresh cotton swab. The inoculation was a streak that runs diametrically across the agar plate in a 1.5 cm wide strip. The plate was then incubated. Following incubation all visible colonies were removed by swabbing them from the agar surface. The plates were then treated with chloroform by dispensing 2 ml of chloroform onto 4 cm×4 cm piece of cloth and sealing the inverted agar plate on top for 30 minutes. The plates were then air dried for 30 minutes following chloroforming. 1-2 indicator strain colonies were then transferred from a stock plate into complementary suspension solution. The suspensions were then vortexed, and a sample was inoculated onto the same agar surface. These samples were streaked in a perpendicular direction to the initial producer streak.
(§2) Each indicator streak was prepared with fresh a suspension containing cells from a corresponding stock plate containing the indicator strain of interest. Indicator strains suspension samples were transferred using a fresh cotton swab. Results were measured by qualitatively reviewing the subsequent (if any) sizes of the zones of inhibition (ZOI) of indicator strain colony growth. A positive result is when there is a distinctive reduction or complete inhibition of indicator colony growth on the culture medium.
(§3) CABCa agar plates containing various concentrations of saccharide were prepared according to the methods described in Method 1. Producer strains were transferred from stock agar plates into 900 μL THB using a fresh cotton swab. A plastic spread plater was cut to approximately 1.2 cm width and then dipped into ethanol and left to air dry to ensure sterility. A 100 μL sample of the producer strain suspension was then dispensed onto the agar surface in a straight line running diametrically across the agar surface in (approximately) 20 μL spots. The spots were spaced approximately 1.5 cm apart from each other. The plastic spreader was then used to evenly distribute the spots across the agar surface in a 1.5 cm wide strip. This step was taken to ensure an even producer streak was inoculated onto the agar surface and provided an approximate measure of the initial inoculum concentration. Separate plastic spreaders were used for samples containing different producer strains. The samples were left to soak into the agar surface until there was no visible liquid remaining on the agar surface (approximately 20 minutes). Following producer streak preparations, the deferred antagonism assay protocol was followed as per Method 2. Results were recorded by measuring the size of the zone of inhibition (ZOI) in mm.
(§4) A dose response assay was carried out according to method 3 above, except a 1.2 cm streak was used. For the individual saccharide testing the pH of the producer streak was adjusted after the growth of producer to change the acidic conditions.
(§5) A deferred antagonism assay was conducted using K12 or M18 raw ingredient suspended in Todd Hewitt broth (THB). This was spread as a 1.2 cm streak containing approximately 1-2×10^6 cfu down the middle of a CABCa control or CABCa galactose supplemented test plate. After 18 hrs growth at 37° C. with 5% CO2, bacterial growth was removed, and the pH of the agar in the initial streak was measured and adjusted to a pH of 6.5-7.5 using 0.5M sodium carbonate pH11 before sterilizing the agar surface using chloroform vapor. Bacterial test strains were suspended in i-THB before being swabbed across the plates perpendicular to the initial streak. Plates were incubated for a further 18 hrs incubation at 37° C. with 5% CO2 before measuring (mm) any zones of inhibition for each test strain, […]

S. constellatus T29 = assay: as above; settings: for Zone of inhibition S. constellatus T29: M18
Protocol: as §1, §2, §3, §4, §5

S. pneumoniae D39 = assay: as above; settings: for Zone of inhibition S. pneumoniae D39: M18
Protocol: as §1, §2, §3, §4, §5

S. pyogenes 71-698 = assay: as above; settings: for Zone of inhibition S. pyogenes 71-698: M18
Protocol: as §1, §2, §3, §4, §5

[1] = tested on: S. saprophyticus ATCC 15305; assay: as above; settings: for Zone of inhibition S. saprophyticus ATCC 15305: M18
Protocol: as §1, §2, §3, §4, §5

[2] = tested on: halitosis-causing gram-negative bacteria F. nucleatum, P. gingivalis and P. intermedia; assay: Deferred antagonism assay (anaerobic), producer K12; settings: 2.5% w/w raffinose; 0.5% w/w galactose; or combination
Protocol: Method: CABCa agar plates were prepared with or without 2.5% w/w raffinose, 0.5% w/w galactose or a combination of both saccharides by the addition of 0.5% (w/v) calcium carbonate to solid CAB agar in bottles and then melted by autoclaving at 110° C. for 10 mins. Once cooled, filter sterilised solutions of the saccharides or distilled water were added and mixed and then 20 ml pipetted into petri dishes.
A deferred antagonism assay was conducted using K12 or M18 raw ingredient suspended in THB. This was spread as a 1.2 cm streak containing approximately 1-2×10^6 cfu down the middle of a CABCa control or CABCa galactose supplemented test plate. After 18 hrs growth at 37° C., 5% CO2 in air, bacterial growth was removed, and the pH of the agar in the initial streak was measured and adjusted to a pH of 6.5-7.5 using 0.5M sodium carbonate pH11 before sterilizing the agar surface using chloroform vapor. Bacterial test strains were suspended in THB and swabbed across the plates perpendicular to the initial streak and then the plates were incubated at 37° C. in an anaerobic jar containing an anaeroGen sachet for 4 days. Zones of inhibition for each test strain were then measured (mm).

[3] = 1.25, 2.5, 5% w/v raffinose added

## OC[C@H]1O[C@H](OC[C@H]2O[C@H](O[C@]3(CO)O[C@H](CO)[C@@H](O)[C@@H]3O)[C@H](O)[C@@H](O)[C@@H]2O)[C@H](O)[C@@H](O)[C@H]1O [Raffinose, D-(+) Raffinose pentahydrate]
S. aureus A222; [3]
  sensitivity of S. aureus A222 to M18: sensitive
S. aureus A222; Raffinose 1.7% wt
  Zone of inhibition S. aureus A222: 20 mm
S. aureus A222; Raffinose 1.7% wt, pH adjusted
  Zone of inhibition S. aureus A222: 17 mm
S. aureus A222; Raffinose 2.5% wt
  Zone of inhibition S. aureus A222: 20 mm
S. aureus A222; Raffinose 2.5% wt, pH adjusted
  Zone of inhibition S. aureus A222: 18 mm
S. aureus A222; Raffinose 3.3% wt
  Zone of inhibition S. aureus A222: 18 mm
S. aureus A222; Raffinose 3.3% wt, pH adjusted
  Zone of inhibition S. aureus A222: 17 mm
S. aureus A222; Raffinose 5% wt
  Zone of inhibition S. aureus A222: 16 mm
S. aureus A222; Raffinose 5% wt, pH adjusted
  Zone of inhibition S. aureus A222: 13 mm
S. aureus A222; Raffinose 10% wt
  Zone of inhibition S. aureus A222: 0 mm
S. aureus A222; Raffinose 10% wt, pH adjusted
  Zone of inhibition S. aureus A222: 0 mm
S. constellatus T29; [3]
  sensitivity of S. constellatus T-29 to M18: sensitive
S. constellatus T29; Raffinose 1.7% wt
  Zone of inhibition S. constellatus T29: 22 mm
S. constellatus T29; Raffinose 1.7% wt, pH adjusted
  Zone of inhibition S. constellatus T29: 17 mm
S. constellatus T29; Raffinose 2.5% wt
  Zone of inhibition S. constellatus T29: 18 mm
S. constellatus T29; Raffinose 2.5% wt, pH adjusted
  Zone of inhibition S. constellatus T29: 16 mm
S. constellatus T29; Raffinose 3.3% wt
  Zone of inhibition S. constellatus T29: 18 mm
S. constellatus T29; Raffinose 3.3% wt, pH adjusted
  Zone of inhibition S. constellatus T29: 17 mm
S. constellatus T29; Raffinose 5% wt
  Zone of inhibition S. constellatus T29: 16 mm
S. constellatus T29; Raffinose 5% wt, pH adjusted
  Zone of inhibition S. constellatus T29: 14 mm
S. constellatus T29; Raffinose 10% wt
  Zone of inhibition S. constellatus T29: 12 mm
S. constellatus T29; Raffinose 10% wt, pH adjusted
  Zone of inhibition S. constellatus T29: 0 mm
S. pneumoniae D39; 0.5 to 10% w/v raffinose
  inhibition by M18 of S. pneumoniae: increase in inhibition
S. pneumoniae D39; Raffinose 1.7% wt
  Zone of inhibition S. pneumoniae D39: 3 mm
S. pneumoniae D39; Raffinose 1.7% wt, pH adjusted
  Zone of inhibition S. pneumoniae D39: 12 mm
S. pneumoniae D39; Raffinose 2.5% wt
  Zone of inhibition S. pneumoniae D39: 10 mm
S. pneumoniae D39; Raffinose 2.5% wt, pH adjusted
  Zone of inhibition S. pneumoniae D39: 11 mm
S. pneumoniae D39; Raffinose 3.3% wt
  Zone of inhibition S. pneumoniae D39: 7 mm
S. pneumoniae D39; Raffinose 3.3% wt, pH adjusted
  Zone of inhibition S. pneumoniae D39: 13 mm
S. pneumoniae D39; Raffinose 5% wt
  Zone of inhibition S. pneumoniae D39: 2 mm
S. pneumoniae D39; Raffinose 5% wt, pH adjusted
  Zone of inhibition S. pneumoniae D39: 12 mm
S. pneumoniae D39; Raffinose 10% wt
  Zone of inhibition S. pneumoniae D39: 1 mm
S. pneumoniae D39; Raffinose 10% wt, pH adjusted
  Zone of inhibition S. pneumoniae D39: 11 mm
S. pyogenes 71-698; 0.5 to 10% w/v raffinose
  inhibition by M18 of S. pyogenes: increase in inhibition
S. pyogenes 71-698; Raffinose 1.7% wt, pH adjusted
  Zone of inhibition S. pyogenes 71-698: 10 mm
S. pyogenes 71-698; Raffinose 2.5% wt
  Zone of inhibition S. pyogenes 71-698: 8 mm
S. pyogenes 71-698; Raffinose 2.5% wt, pH adjusted
  Zone of inhibition S. pyogenes 71-698: 7 mm
S. pyogenes 71-698; Raffinose 3.3% wt
  Zone of inhibition S. pyogenes 71-698: 8 mm
S. pyogenes 71-698; Raffinose 3.3% wt, pH adjusted
  Zone of inhibition S. pyogenes 71-698: 7 mm
S. pyogenes 71-698; Raffinose 5% wt
  Zone of inhibition S. pyogenes 71-698: 5 mm
S. pyogenes 71-698; Raffinose 5% wt, pH adjusted
  Zone of inhibition S. pyogenes 71-698: 5 mm
S. pyogenes 71-698; Raffinose 10% wt
  Zone of inhibition S. pyogenes 71-698: 0 mm
S. pyogenes 71-698; Raffinose 10% wt, pH adjusted
  Zone of inhibition S. pyogenes 71-698: 0 mm
[1]; [3]
  sensitivity of S. saprophyticus ATCC 15305 to M18: sensitive
[1]; Raffinose 1.7% wt
  Zone of inhibition S. saprophyticus ATCC 15305: 16 mm
[1]; Raffinose 1.7% wt, pH adjusted
  Zone of inhibition S. saprophyticus ATCC 15305: 15 mm
[1]; Raffinose 2.5% wt
  Zone of inhibition S. saprophyticus ATCC 15305: 17 mm
[1]; Raffinose 2.5% wt, pH adjusted
  Zone of inhibition S. saprophyticus ATCC 15305: 15 mm
[1]; Raffinose 3.3% wt
  Zone of inhibition S. saprophyticus ATCC 15305: 17 mm
[1]; Raffinose 3.3% wt, pH adjusted
  Zone of inhibition S. saprophyticus ATCC 15305: 14 mm
[1]; Raffinose 5% wt
  Zone of inhibition S. saprophyticus ATCC 15305: 14 mm
[1]; Raffinose 5% wt, pH adjusted
  Zone of inhibition S. saprophyticus ATCC 15305: 12 mm
[1]; Raffinose 10% wt
  Zone of inhibition S. saprophyticus ATCC 15305: 0 mm
[1]; Raffinose 10% wt, pH adjusted
  Zone of inhibition S. saprophyticus ATCC 15305: 0 mm
[2]
  antimicrobial activity of K12 against halitosis-causing gram-negative bacteria: inhibit a variety of strains
